Laboratory results: the kinase profiling compilation of Christmann-Franck et al. (2016)

Key:
Experiment in all cases: KINOMEscan competition binding
Conditions in all cases: compound 10.0 µM
AURKC (human) = AURKC (human) (UniProt Q9UQB9)
BMPR1B (human) = BMPR1B (human) (UniProt O00238)
[1] = tested on: BRAF (human), P15056 [V600E]
BRSK1 (human) = BRSK1 (human) (UniProt Q8TDC3)
CAMK4 (human) = CAMK4 (human) (UniProt Q16566)
CIT (human) = CIT (human) (UniProt O14578)
CLK1 (human) = CLK1 (human) (UniProt P49759)
CSNK1G3 (human) = CSNK1G3 (human) (UniProt Q9Y6M4)
DCLK2 (human) = DCLK2 (human) (UniProt Q8N568)
DYRK2 (human) = DYRK2 (human) (UniProt Q92630)
EPHA1 (human) = EPHA1 (human) (UniProt P21709)
EPHA4 (human) = EPHA4 (human) (UniProt P54764)
EPHA4 (human), sequence (P54764 whole entry, looked up): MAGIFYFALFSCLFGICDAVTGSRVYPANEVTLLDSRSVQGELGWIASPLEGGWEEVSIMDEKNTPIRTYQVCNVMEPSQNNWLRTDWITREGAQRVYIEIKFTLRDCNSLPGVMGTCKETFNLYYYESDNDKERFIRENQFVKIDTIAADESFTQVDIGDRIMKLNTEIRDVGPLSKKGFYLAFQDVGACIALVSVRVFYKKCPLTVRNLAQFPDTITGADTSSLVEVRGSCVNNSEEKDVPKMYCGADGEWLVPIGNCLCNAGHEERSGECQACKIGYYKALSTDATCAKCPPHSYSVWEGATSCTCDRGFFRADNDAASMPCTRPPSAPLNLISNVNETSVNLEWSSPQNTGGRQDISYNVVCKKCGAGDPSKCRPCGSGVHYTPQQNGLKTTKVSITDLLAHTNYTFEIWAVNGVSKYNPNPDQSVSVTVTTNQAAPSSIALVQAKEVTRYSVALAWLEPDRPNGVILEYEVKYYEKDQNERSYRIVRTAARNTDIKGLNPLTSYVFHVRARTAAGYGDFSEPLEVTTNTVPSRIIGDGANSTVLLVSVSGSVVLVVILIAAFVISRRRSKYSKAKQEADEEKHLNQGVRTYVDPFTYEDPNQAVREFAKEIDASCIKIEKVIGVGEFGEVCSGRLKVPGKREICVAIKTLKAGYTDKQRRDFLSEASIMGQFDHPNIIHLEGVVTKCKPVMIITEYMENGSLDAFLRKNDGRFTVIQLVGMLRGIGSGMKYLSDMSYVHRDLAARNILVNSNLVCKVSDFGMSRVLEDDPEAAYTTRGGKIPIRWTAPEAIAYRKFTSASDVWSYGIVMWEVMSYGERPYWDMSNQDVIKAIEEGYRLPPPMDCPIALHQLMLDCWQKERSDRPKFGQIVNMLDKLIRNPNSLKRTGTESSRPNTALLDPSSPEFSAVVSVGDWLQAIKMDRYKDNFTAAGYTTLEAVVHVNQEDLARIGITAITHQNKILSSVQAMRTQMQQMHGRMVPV

FGFR4 (human) = FGFR4 (human) (UniProt P22455)
[2] = tested on: FLT3 (human), P36888 [ITD]
HIPK3 (human) = HIPK3 (human) (UniProt Q9H422)
HIPK3 (human), sequence (Q9H422 whole entry, looked up): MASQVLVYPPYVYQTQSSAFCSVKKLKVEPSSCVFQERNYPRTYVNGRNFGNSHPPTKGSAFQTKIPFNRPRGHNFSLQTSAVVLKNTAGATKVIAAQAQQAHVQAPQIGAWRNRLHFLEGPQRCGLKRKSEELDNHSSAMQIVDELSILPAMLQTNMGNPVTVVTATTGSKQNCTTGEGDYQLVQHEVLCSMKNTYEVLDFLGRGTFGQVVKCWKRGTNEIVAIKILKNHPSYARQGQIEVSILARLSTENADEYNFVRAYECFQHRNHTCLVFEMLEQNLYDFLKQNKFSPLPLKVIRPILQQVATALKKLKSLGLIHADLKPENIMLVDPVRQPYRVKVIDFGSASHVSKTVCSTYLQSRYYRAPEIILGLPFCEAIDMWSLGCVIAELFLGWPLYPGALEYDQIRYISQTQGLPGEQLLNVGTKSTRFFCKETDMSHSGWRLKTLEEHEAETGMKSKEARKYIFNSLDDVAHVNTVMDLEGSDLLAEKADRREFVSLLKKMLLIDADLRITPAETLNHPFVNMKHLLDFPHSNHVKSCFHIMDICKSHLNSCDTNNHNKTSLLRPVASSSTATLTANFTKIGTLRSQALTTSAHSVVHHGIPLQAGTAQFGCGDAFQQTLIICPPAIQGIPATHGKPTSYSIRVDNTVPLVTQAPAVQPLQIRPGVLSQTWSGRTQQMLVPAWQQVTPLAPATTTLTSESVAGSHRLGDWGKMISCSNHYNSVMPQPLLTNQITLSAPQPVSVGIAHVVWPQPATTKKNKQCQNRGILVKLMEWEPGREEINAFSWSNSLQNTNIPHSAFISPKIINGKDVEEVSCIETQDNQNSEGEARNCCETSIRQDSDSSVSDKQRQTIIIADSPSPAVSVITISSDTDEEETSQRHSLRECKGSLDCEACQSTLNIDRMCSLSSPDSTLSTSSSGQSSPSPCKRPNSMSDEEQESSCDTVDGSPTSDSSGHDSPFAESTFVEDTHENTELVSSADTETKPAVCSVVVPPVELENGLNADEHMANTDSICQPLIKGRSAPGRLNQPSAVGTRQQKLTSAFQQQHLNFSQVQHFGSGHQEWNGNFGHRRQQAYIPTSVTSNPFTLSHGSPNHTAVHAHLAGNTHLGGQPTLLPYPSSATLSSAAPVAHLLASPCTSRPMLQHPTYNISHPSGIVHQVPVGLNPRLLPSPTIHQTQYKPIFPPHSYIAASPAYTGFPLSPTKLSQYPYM

IKBKE (human) = IKBKE (human) (UniProt Q14164)
[3] = tested on: KIT (human), P10721 [L576P]
[4] = tested on: KIT (human), P10721 [V559D/T670I]
LYN (human) = LYN (human) (UniProt P07948)
LYN (human), sequence (P07948 whole entry, looked up): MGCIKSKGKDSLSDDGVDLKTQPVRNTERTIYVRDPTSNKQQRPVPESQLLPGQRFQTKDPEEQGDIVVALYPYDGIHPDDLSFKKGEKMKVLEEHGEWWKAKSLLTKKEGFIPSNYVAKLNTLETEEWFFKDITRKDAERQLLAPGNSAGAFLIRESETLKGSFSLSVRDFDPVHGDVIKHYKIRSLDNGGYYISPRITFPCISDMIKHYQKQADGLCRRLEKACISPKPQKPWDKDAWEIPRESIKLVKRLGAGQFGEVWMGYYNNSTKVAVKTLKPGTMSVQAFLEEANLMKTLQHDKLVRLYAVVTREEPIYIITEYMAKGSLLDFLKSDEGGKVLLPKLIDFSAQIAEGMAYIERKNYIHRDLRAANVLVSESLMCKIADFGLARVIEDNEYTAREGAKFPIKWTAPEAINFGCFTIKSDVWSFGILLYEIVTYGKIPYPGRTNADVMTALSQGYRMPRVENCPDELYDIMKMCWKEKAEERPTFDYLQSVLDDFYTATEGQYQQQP

MAP3K12 (human) = MAP3K12 (human) (UniProt Q12852)
MAP4K2 (human) = MAP4K2 (human) (UniProt Q12851)
MAPK12 (human) = MAPK12 (human) (UniProt P53778)
MAPK3 (human) = MAPK3 (human) (UniProt P27361)
MAPK7 (human) = MAPK7 (human) (UniProt Q13164)
PAK1 (human) = PAK1 (human) (UniProt Q13153)
PDGFRA (human) = PDGFRA (human) (UniProt P16234)
[5] = tested on: PIK3CA (human), P42336 [C420R]
[6] = tested on: PIK3CA (human), P42336 [E545K]
PIK3CA (human), P42336 [E545K], sequence (P42336 whole entry E545K, looked up): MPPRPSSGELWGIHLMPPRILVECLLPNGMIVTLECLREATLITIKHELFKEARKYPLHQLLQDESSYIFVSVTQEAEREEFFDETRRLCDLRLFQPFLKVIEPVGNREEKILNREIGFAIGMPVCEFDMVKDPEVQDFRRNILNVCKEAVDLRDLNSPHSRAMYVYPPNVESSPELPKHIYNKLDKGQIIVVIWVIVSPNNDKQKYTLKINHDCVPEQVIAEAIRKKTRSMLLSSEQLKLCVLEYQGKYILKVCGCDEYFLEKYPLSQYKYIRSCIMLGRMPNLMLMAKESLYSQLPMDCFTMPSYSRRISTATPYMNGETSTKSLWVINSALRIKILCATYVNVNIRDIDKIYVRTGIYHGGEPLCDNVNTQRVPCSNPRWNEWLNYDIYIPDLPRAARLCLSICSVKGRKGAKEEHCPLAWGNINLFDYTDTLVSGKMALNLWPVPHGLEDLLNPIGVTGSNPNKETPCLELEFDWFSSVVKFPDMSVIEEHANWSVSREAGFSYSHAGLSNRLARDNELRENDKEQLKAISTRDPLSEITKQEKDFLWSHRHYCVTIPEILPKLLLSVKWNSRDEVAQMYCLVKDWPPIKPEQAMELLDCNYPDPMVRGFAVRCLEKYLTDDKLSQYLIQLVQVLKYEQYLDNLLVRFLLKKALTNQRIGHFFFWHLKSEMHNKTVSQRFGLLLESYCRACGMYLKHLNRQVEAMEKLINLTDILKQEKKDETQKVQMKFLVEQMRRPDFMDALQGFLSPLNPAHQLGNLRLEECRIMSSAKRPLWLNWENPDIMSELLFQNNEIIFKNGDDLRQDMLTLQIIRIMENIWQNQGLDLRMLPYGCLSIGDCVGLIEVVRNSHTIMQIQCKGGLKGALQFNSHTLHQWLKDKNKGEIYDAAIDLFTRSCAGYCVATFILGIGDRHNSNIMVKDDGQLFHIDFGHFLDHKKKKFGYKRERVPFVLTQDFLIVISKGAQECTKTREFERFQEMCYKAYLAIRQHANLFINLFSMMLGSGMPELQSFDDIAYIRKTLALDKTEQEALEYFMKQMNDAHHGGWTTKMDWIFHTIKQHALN

PIK3CB (human) = PIK3CB (human) (UniProt P42338)
PIM2 (human) = PIM2 (human) (UniProt Q9P1W9)
PIP4K2B (human) = PIP4K2B (human) (UniProt P78356)
PRKCQ (human) = PRKCQ (human) (UniProt Q04759)
PRKD3 (human) = PRKD3 (human) (UniProt O94806)
PRKD3 (human), sequence (O94806 whole entry, looked up): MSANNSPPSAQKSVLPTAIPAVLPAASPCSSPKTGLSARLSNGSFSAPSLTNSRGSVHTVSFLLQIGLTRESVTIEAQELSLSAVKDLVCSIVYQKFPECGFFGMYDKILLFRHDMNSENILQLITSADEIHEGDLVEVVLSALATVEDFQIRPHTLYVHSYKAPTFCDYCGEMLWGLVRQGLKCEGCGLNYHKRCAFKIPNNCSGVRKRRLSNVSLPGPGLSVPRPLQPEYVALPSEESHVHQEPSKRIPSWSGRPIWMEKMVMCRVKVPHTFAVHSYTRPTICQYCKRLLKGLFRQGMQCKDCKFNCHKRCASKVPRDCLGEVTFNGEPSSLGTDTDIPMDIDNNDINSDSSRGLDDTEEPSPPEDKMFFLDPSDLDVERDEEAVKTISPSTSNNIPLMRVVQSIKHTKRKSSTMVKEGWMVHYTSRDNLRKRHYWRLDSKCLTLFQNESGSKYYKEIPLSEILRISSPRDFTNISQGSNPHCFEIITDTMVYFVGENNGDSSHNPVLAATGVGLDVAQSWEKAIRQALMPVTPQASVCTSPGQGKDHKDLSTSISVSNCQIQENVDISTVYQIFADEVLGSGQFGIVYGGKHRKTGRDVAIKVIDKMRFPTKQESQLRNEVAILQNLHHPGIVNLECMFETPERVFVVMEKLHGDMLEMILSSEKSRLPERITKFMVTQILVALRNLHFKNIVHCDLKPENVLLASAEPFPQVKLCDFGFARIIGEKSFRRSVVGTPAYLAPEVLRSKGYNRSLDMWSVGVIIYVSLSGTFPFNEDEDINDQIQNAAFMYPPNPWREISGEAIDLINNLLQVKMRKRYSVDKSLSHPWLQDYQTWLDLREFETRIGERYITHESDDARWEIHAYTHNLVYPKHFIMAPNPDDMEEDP

RIOK3 (human) = RIOK3 (human) (UniProt O14730)
SBK1 (human) = SBK1 (human) (UniProt Q52WX2)
SIK2 (human) = SIK2 (human) (UniProt Q9H0K1)
SRC (human) = SRC (human) (UniProt P12931)
STK25 (human) = STK25 (human) (UniProt O00506)
STK25 (human), sequence (O00506 whole entry, looked up): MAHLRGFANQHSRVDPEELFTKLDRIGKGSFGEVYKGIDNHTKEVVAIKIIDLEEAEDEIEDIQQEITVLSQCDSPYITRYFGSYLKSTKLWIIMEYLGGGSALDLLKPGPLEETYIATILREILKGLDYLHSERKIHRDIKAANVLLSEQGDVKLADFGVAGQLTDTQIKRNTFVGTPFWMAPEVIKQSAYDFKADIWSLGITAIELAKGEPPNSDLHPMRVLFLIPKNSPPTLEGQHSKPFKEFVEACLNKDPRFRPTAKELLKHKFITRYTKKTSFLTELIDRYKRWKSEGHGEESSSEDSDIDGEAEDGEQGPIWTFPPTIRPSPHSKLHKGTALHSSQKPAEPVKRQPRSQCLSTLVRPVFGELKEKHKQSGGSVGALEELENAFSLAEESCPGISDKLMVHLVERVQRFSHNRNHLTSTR

STK39 (human) = STK39 (human) (UniProt Q9UEW8)
TESK1 (human) = TESK1 (human) (UniProt Q15569)
TNNI3K (human) = TNNI3K (human) (UniProt Q59H18)
TSSK1B (human) = TSSK1B (human) (UniProt Q9BXA7)

- kinase still bound, per cent of control (AURKC (human)): 96%
- kinase still bound, per cent of control (BMPR1B (human)): 86%
- kinase still bound, per cent of control [1]: 78%
- kinase still bound, per cent of control (BRSK1 (human)): 90%
- kinase still bound, per cent of control (CAMK4 (human)): 98%
- kinase still bound, per cent of control (CIT (human)): 85%
- kinase still bound, per cent of control (CLK1 (human)): 1.6%
- kinase still bound, per cent of control (CSNK1G3 (human)): 69%
- kinase still bound, per cent of control (DCLK2 (human)): 100%
- kinase still bound, per cent of control (DYRK2 (human)): 83%
- kinase still bound, per cent of control (EPHA1 (human)): 100%
- kinase still bound, per cent of control (EPHA4 (human)): 100%
- kinase still bound, per cent of control (FGFR4 (human)): 88%
- kinase still bound, per cent of control [2]: 62%
- kinase still bound, per cent of control (HIPK3 (human)): 56%
- kinase still bound, per cent of control (IKBKE (human)): 85%
- kinase still bound, per cent of control [3]: 72%
- kinase still bound, per cent of control [4]: 92%
- kinase still bound, per cent of control (LYN (human)): 100%
- kinase still bound, per cent of control (MAP3K12 (human)): 90%
- kinase still bound, per cent of control (MAP4K2 (human)): 100%
- kinase still bound, per cent of control (MAPK12 (human)): 100%
- kinase still bound, per cent of control (MAPK3 (human)): 99%
- kinase still bound, per cent of control (MAPK7 (human)): 79%
- kinase still bound, per cent of control (PAK1 (human)): 80%
- kinase still bound, per cent of control (PDGFRA (human)): 100%
- kinase still bound, per cent of control [5]: 86%
- kinase still bound, per cent of control [6]: 100%
- kinase still bound, per cent of control (PIK3CB (human)): 85%
- kinase still bound, per cent of control (PIM2 (human)): 84%
- kinase still bound, per cent of control (PIP4K2B (human)): 86%
- kinase still bound, per cent of control (PRKCQ (human)): 24%
- kinase still bound, per cent of control (PRKD3 (human)): 78%
- kinase still bound, per cent of control (RIOK3 (human)): 65%
- kinase still bound, per cent of control (SBK1 (human)): 97%
- kinase still bound, per cent of control (SIK2 (human)): 89%
- kinase still bound, per cent of control (SRC (human)): 100%
- kinase still bound, per cent of control (STK25 (human)): 76%
- kinase still bound, per cent of control (STK39 (human)): 100%
- kinase still bound, per cent of control (TESK1 (human)): 100%
- kinase still bound, per cent of control (TNNI3K (human)): 80%
- kinase still bound, per cent of control (TSSK1B (human)): 100%
SMILES: Cn1cc(C2=C(c3ccc(Cl)cc3Cl)C(=O)NC2=O)c2ccccc21
